2 substances from patent EP0455560A2, “Use of N-dichloroacetyl lysogangliosides for the selective modulation of the expression and function of CD4 determinants on the cell surface” (FIDIA S.p.A., priority 1990, dated 1991) can be followed below.

Common to all, as to format: cell-based
The target of assay [1] is T1, CD₄ (Homo sapiens, UniProt P01730). Description: Percentage of CD4 still expressed in Molt 3 cells after incubation in the presence of BMS serum substitute. Details: percentage of CD₄ still expressed in the Molt 3 cells after incubation; endogenous in cells; host or cells: Molt 3 cells. Particulars: 60 minutes, 37°C, 89% without agent. The procedure: Molt 3 cells (5x10⁶) were incubated with various concentrations of N-dichloroacetyl lyso GM₁ (from 1 µg/ml to 250 µg/ml) for 60 minutes at 37°C in the presence of BMS (BMS Serum Substitute, Biochrom. Kg. Seromed, Berlin, Germany). After incubation the percentage of CD₄ expressed was shown by a specific Mab for CD₄ (T₄ Coulter Clone, Coulter Electronics, Hialeah, Florida, USA). For a positive control, an experiment-was carried out with monosialoganglioside GM₁ under the same experimental conditions as reported for N-dichloroacetyl lyso GM₁.
Table 2 reports the percentage of CD₄ still expressed in the Molt 3 cells after incubation with different chemical molecules at different concentrations, as described in Example 1. The CD₄ expressed in the absence of the chemical agents during the experiment was 89%.

The target of assay [2] is T1, CD₄. Description: Percentage of CD4 still expressed in Molt 3 cells after incubation in the presence of fetal calf serum. Details: percentage of CD₄ still expressed in the Molt 3 cells after incubation; endogenous in cells; host or cells: Molt 3 cells. Particulars: for percentage of CD₄ still expressed in the Molt 3 cells: 60 minutes, 37°C, 84% without agent; for effect of serum concentration on the modulating action on the CD₄ receptor: conclusion in words from Table 3, FCS 1% to 5%. The procedure:
Molt 3 cells (5x10⁶) were incubated with different concentrations of N-dichloroacetyl lyso GM₁ (from 1 µg/ml to 125 µg/ml) for 60 minutes at 37°C in the presence of different concentrations of fetal calf serum (FCS) (from 1% to 5%). After incubation the percentage of CD₄ expressed was shown by a specific Mab for CD₄ (T₄ Coulter Clone, Coulter Electronics, Hialeah, Florida, USA).
As a positive control, an experiment with the monosialoganglioside GM₁ was carried out under the same experimental conditions as reported for N-dichloroacetyl lyso GM₁.
The CD₄ expressed in the absence of the chemical agents during the experiment was 84%.

Another assay relates to CD₃. In words: Mean fluorescence intensity of human lymphocytes stained with anti CD3 Mab after incubation with the compound in the presence of serum. Particulars: 37°C, one hour. The procedure: (§1) Human lymphocytes were incubated at various concentrations of the modified ganglioside N-dichloroacetyl lyso GM₁. The cells were stained using monoclonal antibodies (Mab) specific for CD₄, CD₈, CD₃ (T₄, T₈, T₃ Coulter Clone, Coulter Electronics, Hialeah, Florida, USA) and OKT₄ (Ortho Diagnostics, Raritan, New Jersey, USA), these monoclonal antibodies being coupled to fluorescein. By measuring the mean fluorescence intensity (MFI) of the labelled cell population at each concentration of N-dichloroacetyl lyso GM₁, it was possible to quantify how much N-dichloroacetyl lyso GM₁ is necessary to produce 50% inhibition of the fluorescence (I₅₀). The I₅₀ value for […] lymphocytes was 5 µM. The concentration of the composition of N-dichloroacetyl lyso GM₁ at which the fluorescence intensity measurement was 0% was resolved experimentally.
(§2) Specifically, human cells were incubated with saline solution at various concentrations of N-dichloroacetyl lyso GM₁ in the presence of serum at 37°C for one hour. The cells were then washed, incubated with suitable monoclonal antibodies, fixed with 1% formalin and analyzed by MFI after excitation at […] laser length.

Assay [3] deals with T1, CD₄. Description: Mean fluorescence intensity of human lymphocytes stained with anti CD4 Mab after incubation with the compound in the presence of serum. Details: endogenous in cells; host or cells: human lymphocytes. Particulars: for Mean fluorescence intensity (% of positive control): anti CD4 Mab, serum, 37°C, one hour. The procedure:
as §1, §2

Regarding “monosialoganglioside GM₁ [GM1, reference compound]”, the “percentage of CD₄ still expressed in the Molt 3 cells” value (from here on “percentage of CD₄ still expressed”) on CD₄ [1] (1μg/ml) is listed as 88%; on CD₄ [1] (5μg/ml) it was 81%; on CD₄ [1] (25μg/ml) it was 52%; at CD₄ [1] (125μg/ml), 0%; on CD₄ [2] (1μg/ml, FCS 1%), 82%; on CD₄ [2] (1μg/ml, FCS 2%), 84%. Also, the “percentage of CD₄ still expressed” value on CD₄ [2] (1μg/ml, FCS 5%) stood at 85%; on CD₄ [2] (25μg/ml, FCS 1%), 80%; on CD₄ [2] (25μg/ml, FCS 2%), 83%; on CD₄ [2] (25μg/ml, FCS 5%), 81%; on CD₄ [2] (75μg/ml, FCS 1%), 50%; on CD₄ [2] (75μg/ml, FCS 2%), 80%. Besides, the “percentage of CD₄ still expressed” value is 83% on CD₄ [2] (75μg/ml, FCS 5%); 10% at CD₄ [2] (125μg/ml, FCS 1%); 25% at CD₄ [2] (125μg/ml, FCS 2%); 72% at CD₄ [2] (125μg/ml, FCS 5%). Also, the “effect of serum concentration on the modulating action on the CD₄ receptor” value on CD₄ [2] is “this modulating action disappears in the presence of serum”.

For the substance “N-dichloroacetyl lyso GM₁ [N-dichloroacetyl lyso GM1]”, the “Mean fluorescence intensity (% of positive control)” value in the assay on CD₃ (2 μg/ml) is recorded as 100 % of positive control; in the assay on CD₃ (5 μg/ml, 60 min) it was 100 % of positive control; with CD₃ (10 μg/ml, 60 min), 100 % of positive control; in the assay with CD₃ (25 μg/ml, 60 min), 100 % of positive control; in the assay with CD₃ (50 μg/ml) it was 100 % of positive control; on CD₄ [3] (2 μg/ml), 100 % of positive control. The “Mean fluorescence intensity (% of positive control)” value on CD₄ [3] (5 μg/ml) is 60 % of positive control; at CD₄ [3] (10 μg/ml), 28 % of positive control; at CD₄ [3] (25 μg/ml), 0 % of positive control; on CD₄ [3] (50 μg/ml) it was 0 % of positive control. Further, the “selectivity of modulation, CD₄ receptor versus CD₃ receptor” value at CD₄ [3] (conclusion in words from Table 1, 2 to 50 μg/ml) was “selectively modulates the CD₄ receptor without altering the CD₃ receptor”. In addition, the IC50 at CD₄ [3] (minor lymphocytes, fluorescein-coupled Mab, MFI, read-out: 50% inhibition of the fluorescence (I₅₀)) was 5 µM. The “percentage of CD₄ still expressed” value on CD₄ [1] (1μg/ml) is recorded as 75%; on CD₄ [1] (5μg/ml) it was 74%; on CD₄ [1] (25μg/ml), 47%; on CD₄ [1] (125μg/ml), 13%; at CD₄ [2] (1μg/ml, FCS 1%), 70%; at CD₄ [2] (1μg/ml, FCS 2%), 73%. For the same substance, the “percentage of CD₄ still expressed” value on CD₄ [2] (1μg/ml, FCS 5%) came to 77%; at CD₄ [2] (25μg/ml, FCS 1%), 44%; at CD₄ [2] (25μg/ml, FCS 2%) it was 55%; at CD₄ [2] (25μg/ml, FCS 5%) it was 64%; at CD₄ [2] (75μg/ml, FCS 1%) it was 47%; at CD₄ [2] (75μg/ml, FCS 2%), 50%. Also, the “percentage of CD₄ still expressed” value turned out to be 55% at CD₄ [2] (75μg/ml, FCS 5%); 30% at CD₄ [2] (125μg/ml, FCS 1%); 49% on CD₄ [2] (125μg/ml, FCS 2%); 50% at CD₄ [2] (125μg/ml, FCS 5%). In addition, at CD₄ [2], the “effect of serum concentration on the modulating action on the CD₄ receptor” value is on record as “increased serum concentrations do not alter its modulating action on the CD₄ receptor”.
